# Numbered stars: 1 amine (or outer) side, 2 acyl side, 3 side chain; on linkers, the order of the positions; unused ones are H or OH. Bridge positions count the residues as written; N and C are the ends. Square brackets hold non-standard residues; d marks the D form. Peptide text beside a SMILES is read from it. * marks the point of attachment. hPhe(3,5-F2-4-CF3) = N[C@@H](CCc1cc(F)c(C(F)(F)F)c(F)c1)C(=O)O; hPhe(3-Cl-4-CF3) = N[C@@H](CCc1ccc(C(F)(F)F)c(Cl)c1)C(=O)O; hPhe(3-F,4-CF3) = N[C@@H](CCc1ccc(C(F)(F)F)c(F)c1)C(=O)O; NMePhe(4-CF3) = CN[C@@H](Cc1ccc(C(F)(F)F)cc1)C(=O)O; X56 = O=C([C@H](CCc1cccc(C(F)(F)F)c1)N[*:1])[*:2]; hPhe(4-CF3) = N[C@@H](CCc1ccc(C(F)(F)F)cc1)C(=O)O; 3Oxa8azabicyclo(3.2.1)octane = C1CC2COCC1N2*; NEtPhe(4-Me) = CCN[C@@H](Cc1ccc(C)cc1)C(=O)O; NMePhe(4-Cl) = CN[C@@H](Cc1ccc(Cl)cc1)C(=O)O; NMedβ3hAla = C[C@H](CC(=O)[*:2])N(C)[*:1]; NMeGly(cPent) = CN[C@H](C(=O)O)C1CCCC1; Pro(4,4-F2) = O=C(O)[C@@H]1CC(F)(F)CN1; NMeCha = CN[C@@H](CC1CCCCC1)C(=O)O; NMehLeu = CN[C@@H](CCC(C)C)C(=O)O; Hyp = O=C(O)[C@@H]1C[C@@H](O)CN1; NMeAhp(2) = CCCCC[C@H](NC)C(=O)O; NMeChg = CN[C@H](C(=O)O)C1CCCCC1; NMeF = CN[C@@H](Cc1ccccc1)C(=O)O; NMeI = CC[C@H](C)[C@H](NC)C(=O)O; NMeD = CN[C@@H](CC(=O)O)C(=O)O; NMeL = CN[C@@H](CC(C)C)C(=O)O; NMeNle = CCCC[C@H](NC)C(=O)O; NMeV = CN[C@H](C(=O)O)C(C)C; d(β3hA) = C[C@@H](N)CC(=O)O; NMeS = CN[C@@H](CO)C(=O)O; Morpholide = C1CN(*)CCO1; NMeA = CN[C@@H](C)C(=O)O; NMeAib = CNC(C)(C)C(=O)O; Piperidide = C1CCN(*)CC1; Ac5c = NC1(C(=O)O)CCCC1; Aze = O=C(O)[C@@H]1CCN1; Ethyl(2,2-F2) = FC(F)C*; Ac4c = NC1(C(=O)O)CCC1; CH2CMe2OH = CC(C)(O)C*; Aib = CC(C)(N)C(=O)O; Isopentyl = CC(C)CC*; NEtG = CCNCC(=O)O; Sar = CNCC(=O)O; Propyl = CCC*
# Target: protein-protein interaction between Kras and SOS1 (biotin-tagged human Kras loaded with GDP, His-tagged human SOS1) (Homo sapiens (Human), UniProt P01116, G12D)
# Experiment: Protein-protein interaction inhibition between Kras and SOS1 (KrasG12D-SOS PPI) using AlphaScreen;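 further: kras produced in E. coli, Ni-coupled donor beads and streptavidin acceptor beads, excitation 680 nm with emission detected at 520–620 nm via singlet oxygen transfer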
# Format: biochemical
# Conditions: AlphaScreen; biotin-tagged human Kras loaded with GDP, His-tagged human SOS1; read-out: KRAS G12D-SOS PPI IC50
row,Structure (SMILES),IC50 [nM]
1,CC[C@H](C)[C@@H]1NC(=O)[C@H](CC(C)C)N(C)C(=O)C[C@@H](C(=O)N2C3CCC2COC3)N(C)C(=O)[C@H](C2CCCC2)N(C)C(=O)C2(CCCC2)NC(=O)[C@@H]2CCCN2C(=O)[C@H](CCc2ccc(C(F)(F)F)c(Cl)c2)NC(=O)CN(C)C(=O)[C@H](Cc2ccc(C)cc2)N(CC)C(=O)[C@@H]2CCN2C(=O)[C@H](C)N(C)C1=O [Compound 1236] ([NMeL]I[NMeA][Aze][NEtPhe(4-Me)][Sar][hPhe(3-Cl-4-CF3)]P[Ac5c][NMeGly(cPent)][NMeD]-{3Oxa8azabicyclo(3.2.1)octane}; lactam N-11),7.3
2,CCCCC[C@H]1C(=O)N[C@@H]([C@@H](C)CC)C(=O)N(C)[C@@H](C)C(=O)N2CC[C@H]2C(=O)N(C)[C@@H](COCCC)C(=O)N(C)CC(=O)N[C@@H](CCc2ccc(C(F)(F)F)c(Cl)c2)C(=O)N2CCC[C@H]2C(=O)NC2(CCCC2)C(=O)N(C)[C@@H](C2CCCC2)C(=O)N(C)[C@H](C(=O)N2C3CCC2COC3)CC(=O)N1C [Compound 622] ([NMeAhp(2)]I[NMeA][Aze][NMeS](Propyl)[Sar][hPhe(3-Cl-4-CF3)]P[Ac5c][NMeGly(cPent)][NMeD]-{3Oxa8azabicyclo(3.2.1)octane}; lactam N-11),1.7
3,CC[C@H](C)[C@@H]1NC(=O)[C@H](CC(C)C)N(C)C(=O)C[C@@H](C)NC(=O)[C@H](CC(C)C)N(C)C(=O)C(C)(C)NC(=O)[C@H](COCC(C)(C)O)N(C)C(=O)[C@H](CCc2ccc(C(F)(F)F)c(Cl)c2)NC(=O)CN(CC)C(=O)[C@H](COCCC(C)C)N(C)C(=O)CN(C)C(=O)CN(C)C1=O [Compound 1516] (cyclo([Aib][NMeL][d(β3hA)][NMeL]I[Sar][Sar][NMeS](Isopentyl)[NEtG][hPhe(3-Cl-4-CF3)][NMeS](CH2CMe2OH))),340
4,CC[C@H](C)[C@@H]1NC(=O)[C@H](CC(C)C)N(C)C(=O)C[C@@H](C)N(C)C(=O)[C@H](CC(C)C)NC(=O)C(C)(C)N(C)C(=O)[C@H](CC(C)C)NC(=O)[C@H](CCc2ccc(C(F)(F)F)cc2)NC(=O)CN(C)C(=O)[C@H](Cc2ccc(Cl)cc2)N(C)C(=O)CN(C)C(=O)CN(C)C1=O [Compound 315] (cyclo(I[Sar][Sar][NMePhe(4-Cl)][Sar][hPhe(4-CF3)]L[NMeAib]L[NMedβ3hAla][NMeL])),120
5,CC[C@H](C)[C@@H]1NC(=O)[C@H](CC(C)C)N(C)C(=O)C[C@@H](C(=O)N2CCCCC2)N(C)C(=O)[C@H](C2CCCCC2)N(C)C(=O)C2(CCCC2)NC(=O)[C@H](COCC(C)(C)O)N(C)C(=O)[C@H](CCc2ccc(C(F)(F)F)c(Cl)c2)NC(=O)CN(C)C(=O)[C@H](CC2CCCCC2)N(C)C(=O)CN(C)C(=O)CN(C)C1=O [Compound 789] ([NMeL]I[Sar][Sar][NMeCha][Sar][hPhe(3-Cl-4-CF3)][NMeS](CH2CMe2OH)[Ac5c][NMeChg][NMeD]-Piperidide; lactam N-11),0.61
6,"CC[C@H](C)[C@@H]1NC(=O)[C@H](CC(C)C)N(C)C(=O)C[C@@H](C(=O)N(C)C)N(C)C(=O)[C@H](C2CCCC2)N(C)C(=O)C2(CCCC2)NC(=O)[C@H](CC(=O)N(C)C)N(C)C(=O)[C@H](CCc2ccc(C(F)(F)F)c(Cl)c2)NC(=O)CN(C)C(=O)[C@H](CC2CCCCC2)N(C)C(=O)[C@@H]2CCN2C(=O)[C@H](C)N(C)C1=O [Compound 2106, (3S,6S,9S,13S,16S,22S,25S,31S,34S)-25-[2-[3-chloro-4-(trifluoromethyl)phenyl]ethyl]-31-(cyclohexylmethyl)-16-cyclopentyl-22-[2-(dimethylamino)-2-oxo-ethyl]-9-isobutyl-N,N,3,4,10,14,17,23,29,32-decamethyl-6-[(1S)-1-methylpropyl]-2,5,8,11,15,18,21,24,27,30,33-undecaoxo-spiro[1,4,7,10,14,17,20,23,26,29,32-undecazabicyclo[32.2.0]hexatriacontane-19,1-cyclopentane]-13-carboxamide] ([NMeL]I[NMeA][Aze][NMeCha][Sar][hPhe(3-Cl-4-CF3)][NMeD](NMe2)[Ac5c][NMeGly(cPent)][NMeD]-NMe2; lactam N-11)",2
7,CC[C@H](C)[C@@H]1NC(=O)[C@H](C)N(C)C(=O)C[C@@H](C)NC(=O)[C@H](C2CCCC2)N(C)C(=O)C2(CCCC2)NC(=O)[C@@H]2CCCN2C(=O)[C@H](CCc2ccc(C(F)(F)F)c(Cl)c2)NC(=O)CN(C)C(=O)[C@H](Cc2ccc(C(F)(F)F)cc2)N(C)C(=O)[C@@H]2CCN2C(=O)[C@H](C)N(C)C1=O [Compound 1512] (cyclo([Ac5c][NMeGly(cPent)][d(β3hA)][NMeA]I[NMeA][Aze][NMePhe(4-CF3)][Sar][hPhe(3-Cl-4-CF3)]P)),1.2
8,CCCCC[C@H]1C(=O)N[C@@H]([C@@H](C)CC)C(=O)N[C@@H](C)C(=O)N2CC[C@H]2C(=O)N(C)[C@@H](CC2CCCCC2)C(=O)N(C)CC(=O)N[C@@H](CCc2ccc(C(F)(F)F)c(Cl)c2)C(=O)N2CCC[C@H]2C(=O)NC2(CCCC2)C(=O)N(C)[C@@H](C2CCCC2)C(=O)N(C)[C@H](C(=O)N2CCOCC2)CC(=O)N1C [Compound 263] ([NMeAhp(2)]IA[Aze][NMeCha][Sar][hPhe(3-Cl-4-CF3)]P[Ac5c][NMeGly(cPent)][NMeD]-Morpholide; lactam N-11),2.9
9,"CC[C@H](C)[C@@H]1NC(=O)[C@H](CC(C)C)N(C)C(=O)C[C@@H](C)N(C)C(=O)[C@H](C2CCCCC2)N(C)C(=O)C2(CCC2)NC(=O)[C@@H]2CC(F)(F)CN2C(=O)[C@H](CCc2cc(F)c(C(F)(F)F)c(F)c2)NC(=O)CN(C)C(=O)[C@H](Cc2ccc(C)cc2)N(CC)C(=O)[C@@H]2CCN2C(=O)[C@H](C)N(C)C1=O [Compound 475] (cyclo([Ac4c][NMeChg][NMedβ3hAla][NMeL]I[NMeA][Aze][NEtPhe(4-Me)][Sar][hPhe(3,5-F2-4-CF3)][Pro(4,4-F2)]))",51
10,CCCC[C@H]1C(=O)N[C@@H]([C@@H](C)CC)C(=O)N(C)[C@@H](C)C(=O)N2CC[C@H]2C(=O)N(C)[C@@H](CC2CCCCC2)C(=O)N(C)CC(=O)N[C@@H](CCc2ccc(C(F)(F)F)c(Cl)c2)C(=O)N2CCC[C@H]2C(=O)NC2(CCCC2)C(=O)N(C)[C@@H](C(C)C)C(=O)N(C)[C@H](C(=O)N2CCCCC2)CC(=O)N1C [Compound 1616] ([NMeNle]I[NMeA][Aze][NMeCha][Sar][hPhe(3-Cl-4-CF3)]P[Ac5c][NMeV][NMeD]-Piperidide; lactam N-11),12
11,CC[C@H](C)[C@@H]1NC(=O)[C@H](CC(C)C)N(C)C(=O)C[C@@H](C(=O)N2CCCCC2)N(C)C(=O)[C@H](C2CCCCC2)N(C)C(=O)C2(CCCC2)NC(=O)CN(CC)C(=O)[C@H](CCc2ccc(C(F)(F)F)c(Cl)c2)NC(=O)CN(C)C(=O)[C@H](CC2CCCCC2)N(C)C(=O)CN(C)C(=O)CN(C)C1=O [Compound 160] ([NMeL]I[Sar][Sar][NMeCha][Sar][hPhe(3-Cl-4-CF3)][NEtG][Ac5c][NMeChg][NMeD]-Piperidide; lactam N-11),1
12,CC[C@H](C)[C@@H]1NC(=O)[C@H](C)N(C)C(=O)C[C@@H](C)NC(=O)[C@H](CC(C)C)N(C)C(=O)[C@H](Cc2ccccc2)N(C)C(=O)[C@H](CC(C)C)NC(=O)[C@H](CCc2cccc(C(F)(F)F)c2)NC(=O)CN(C)C(=O)[C@H](Cc2ccc(Cl)cc2)N(C)C(=O)CN(C)C(=O)CN(C)C1=O [Compound 2095] (cyclo(I[Sar][Sar][NMePhe(4-Cl)][Sar][X56]L[NMeF][NMeL][d(β3hA)][NMeA])),240
13,CCCOC[C@H]1C(=O)N(C)CC(=O)N[C@@H](CCc2ccc(C(F)(F)F)c(Cl)c2)C(=O)N2CCC[C@H]2C(=O)NC2(CCCC2)C(=O)N(C)[C@@H](C2CCCC2)C(=O)N(C)[C@H](C(=O)N2C3CCC2COC3)CC(=O)N(C)[C@@H](CCC(C)C)C(=O)N[C@@H]([C@@H](C)CC)C(=O)N[C@@H](C)C(=O)N2CC[C@H]2C(=O)N1C [Compound 1326] ([NMehLeu]IA[Aze][NMeS](Propyl)[Sar][hPhe(3-Cl-4-CF3)]P[Ac5c][NMeGly(cPent)][NMeD]-{3Oxa8azabicyclo(3.2.1)octane}; lactam N-11),5.1
14,"CC[C@H](C)[C@@H]1NC(=O)[C@H](CC(C)C)N(C)C(=O)C[C@@H](C(=O)N2CCCCC2)N(C)C(=O)[C@H]([C@@H](C)CC)N(C)C(=O)C2(CCCC2)NC(=O)[C@@H]2CCCN2C(=O)[C@H](CCc2ccc(C(F)(F)F)c(F)c2)NC(=O)CN(C)C(=O)[C@H](CC2CCCCC2)N(C)C(=O)[C@@H]2CCN2C(=O)[C@H](C)N(C)C1=O [Compound 409] ([NMeL]I[NMeA][Aze][NMeCha][Sar][hPhe(3-F,4-CF3)]P[Ac5c][NMeI][NMeD]-Piperidide; lactam N-11)",2.4
15,CC[C@H](C)[C@@H]1NC(=O)[C@H](C)N(C)C(=O)C[C@@H](C)N(C)C(=O)[C@H](CC(C)C)NC(=O)[C@H](Cc2ccccc2)N(C)C(=O)[C@H](CC(C)C)NC(=O)[C@H](CCc2ccc(C(F)(F)F)cc2)NC(=O)CN(C)C(=O)[C@H](Cc2ccc(Cl)cc2)N(C)C(=O)CN(C)C(=O)CN(C)C1=O [Compound 214] (cyclo(I[Sar][Sar][NMePhe(4-Cl)][Sar][hPhe(4-CF3)]L[NMeF]L[NMedβ3hAla][NMeA])),280
16,"CC[C@H](C)[C@@H]1NC(=O)[C@H](CC(C)C)N(C)C(=O)C[C@@H](C(=O)N2CCCCC2)N(C)C(=O)[C@H](C2CCCCC2)N(C)C(=O)C2(CCCC2)NC(=O)[C@@H]2C[C@@H](OCC(F)F)CN2C(=O)[C@H](CCc2ccc(C(F)(F)F)c(Cl)c2)NC(=O)CN(C)C(=O)[C@H](CC2CCCCC2)N(C)C(=O)CN(C)C(=O)CN(C)C1=O [Compound 2119] ([NMeL]I[Sar][Sar][NMeCha][Sar][hPhe(3-Cl-4-CF3)][Hyp](Ethyl(2,2-F2))[Ac5c][NMeChg][NMeD]-Piperidide; lactam N-11)",0.39
17,"CC[C@H](C)[C@@H]1NC(=O)[C@H](CC(C)C)N(C)C(=O)C[C@@H](C(=O)N2CCCCC2)N(C)C(=O)[C@H]([C@@H](C)CC)N(C)C(=O)C2(CCCC2)NC(=O)[C@@H]2CCCN2C(=O)[C@H](CCc2ccc(C(F)(F)F)c(F)c2)NC(=O)CN(C)C(=O)[C@H](C2CCCC2)N(C)C(=O)[C@@H]2CCN2C(=O)[C@H](C)N(C)C1=O [Compound 674] ([NMeL]I[NMeA][Aze][NMeGly(cPent)][Sar][hPhe(3-F,4-CF3)]P[Ac5c][NMeI][NMeD]-Piperidide; lactam N-11)",5.6
